Test results taken from patent publication US12414566B2, “Safener containing herbicidal oil dispersion” (ARYSTA LIFESCIENCE INC, priority 2017, dated 2025).
Like-named read-outs stand apart in the source and are kept apart here.

Experiment: Chemical stability in butyl benzoate
Format: physicochemical

Structure (SMILES) | chemical stability in the butyl benzoate | chemical stability in the butyl benzoate (room temperature or accelerated temperature)
COc1nn(C(=O)[N-]S(=O)(=O)c2ccccc2OC(F)(F)F)c(=O)n1C.[Na+] [Flucarbazone sodium] | chemically stable | 
CC(Oc1ccc(Oc2nc3ccc(Cl)cc3o2)cc1)C(=O)O (centres unmarked) [fenoxaprop] |  | chemically stable
